Assay results: patent publication US20230150951A1, “2,5- OR 2,6-DISUBSTITUTED HYDROQUINONE DERIVATIVES WITH AT LEAST ONE CARBOXY, SULFO OR AMIDO GROUP USEFUL AS MEDICAMENTS” (OM PHARMA SA, priority 2020, published 2023)

Assays:
Assay type in all cases: cell-based
VEGF-A = target: T1, VEGF-A (Homo sapiens, UniProt P15692); assay: VEGF-A induced sprouting of HUVEC, spheroid-based cellular angiogenesis assay; conditions: VEGF-A 25 ng/mL preincubated with compound, 24 h, read-out: VEGF-A1 IC50
T1 construct: purchased ProQinase GmbH
T1 sequence (P15692 27-191 isoform P15692-4): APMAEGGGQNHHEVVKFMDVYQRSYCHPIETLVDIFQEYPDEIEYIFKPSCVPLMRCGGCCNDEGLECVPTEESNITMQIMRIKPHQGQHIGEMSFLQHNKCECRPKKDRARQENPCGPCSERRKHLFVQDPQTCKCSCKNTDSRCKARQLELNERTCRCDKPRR
Experimental: Aim of this in vitro method is to assess compounds effects on FGF-2, FGF-1, or VEGF-A induced sprouting of human umbilical vein endothelial cells (HUVEC) in the spheroid-based cellular angiogenesis assay. Before adding the growth factors to the cells, they were preincubated with the compound. Sunitinib was tested as a control (without preincubation).
IC50 values determined for the tested compounds are expressed in microM [μM] and the values for the inhibition of FGF-1, FGF2 and VEGF-A induced growth (sprouting) are listed after each compound in the examples after chemical characterization.
Sprouting test was performed on the compounds dissolved in DMSO to reach 100-fold concentrated stock solutions and dissolved in culture media. Sunitinib as reference compound was provided by ProQinase GmbH. Growth factors were purchased from rhFGF-basic (FGF-2), Peprotech, New Jersey, USA, #100-18C, Lot #0415571; rhFGF-acidic (FGF-1), Peprotech, New Jersey, USA, #100-17A, Lot #031207; hVEGF-A165 (ProQinase GmbH, Freiburg, Germany; 05.02.2010) were used for stimulation of HUVEC cells growth.
Test system: Endothelial cells from human umbilical vein (HUVEC) from pooled donors were stored frozen with 70% medium, 20% FCS, 10% DMSO at about 1×10^6 cells/ampoule. HUVEC cells, primary human umbilical vein endothelial cells (PromoCell, Heidelberg, Germany), were used after passage 3 to 4. Morphology of the cells are adherent, cobblestone-like growing as monolayer and were cultured in endothelial cell growth and basal medium (ECGM/ECBM, PromoCell). The subculture was split 1:3; every 3-5 days, seed out at ca. 1×10^4 cells/cm^2 and incubated at 37° C. with 5% CO2 with a doubling time 24-48 hours
Dilution of test compounds: 100× concentrated solutions (concerning to the final assay concentrations) of each test compound were prepared with the appropriate solvent (in DMSO or in water). These 100×compound solutions were further diluted in endothelial cell growth and basal medium (ECBM) 1:7.5 to get a 13.33× concentrated solution. 75 μl of the 13.33×solution was subsequently mixed with 25 μl of 40× concentrated stimulus (solved in ECBM), resulting in a 10×concentrated stimulus/compound mixture. This mixture (100 μl) was incubated for 30 min at 37° C. and then added to 900 μl gel, containing the HUVEC spheroids (resulting in the final assay concentration).
Test method: the experiments were pursued in modification of the originally published protocol (Korff and Augustin: J Cell Sci 112: 3249-58, 1999). In brief, spheroids were prepared as described (Korff and Augustin: J Cell Biol 143: 1341-52, 1998) by pipetting 400 HUVEC in a hanging drop on plastic dishes to allow overnight spheroid aggregation. 50 HUVEC spheroids were then seeded in 0.9 ml of a collagen gel and pipetted into individual wells of a 24 well plate to allow polymerization. The test compounds were preincubated with the growth factors (FGF-1, FGF-2 or VEGF-A final concentration 25 ng/mL) in a 10-fold concentrated solution and subsequently, 100 μl of this solution was added on top of the polymerized gel. All compounds were diluted in solvent (DMSO or water) as 100×stocks first (which means 100×stocks of each final assay concentration were prepared in solvent). Subsequently, these stocks were further diluted in medium (resulting in the 13.33×stocks of each final assay concentration) with final concentrations tested: 100, 50, 25, 12.5, 6.25, 3.13 and 1.56×10^−6 M). Plates were incubated at 37° C. for 24 hours and fixed by adding 4% PFA (Roth, Karlsruhe, Germany).
Quantification of growth factor inhibition: sprouting intensity of HUVEC spheroids treated with the growth factor and the inhibitors were quantitated by an image analysis system determining the cumulative sprout length per spheroid (CSL).

Human neutrophils [1] = assay: Neutrophil adhesion under static conditions; conditions: fMLP-stimulated adhesion to fibrinogen; method: 40 μM and 80 μM, concentration of the value not stated
Outline: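 Donor buffy-coat neutrophils (3×10^6/ml, PBS with Ca/Mg, 10% FCS, pH 7.2) preincubated 30 min at 37° C with 40 μM or 80 μM compound, then stimulated 1 min at 37° C with 1 nM fMLP on fibrinogen-coated glass. Adherent cells fixed and counted by computer; mean ± SD, unpaired t-test.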

FGF-2 = target: T2, FGF-2 (Homo sapiens, UniProt P09038); assay: FGF-2 induced sprouting of HUVEC, spheroid-based cellular angiogenesis assay; conditions: FGF-2 25 ng/mL preincubated with compound, 24 h
T2 construct: purchased Peprotech 100-18C
Outline: (§1)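 Compound (final 100 down to 1.56×10^−6 M) was mixed with growth factor (final 25 ng/mL) for 30 min at 37°C, then added onto collagen-embedded 400-cell HUVEC spheroids.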

VEGFR-2 = target: T3, VEGFR-2 (Homo sapiens, UniProt P35968); assay: VEGF-165 induced phosphorylation of VEGF-Receptor on HUVEC; conditions: HUVEC preincubated 60 min, VEGF165 25 ng/mL 2 min; read-out: VEGFR-Phosphorylation inhibition IC50
T3 construct: endogenous in cells; host or cells: primary HUVEC

FGF-1 = target: T4, FGF-1 (Homo sapiens, UniProt P05230); assay: FGF-1 induced sprouting of HUVEC, spheroid-based cellular angiogenesis assay; conditions: FGF-1 25 ng/mL preincubated with compound, 24 h
T4 construct: purchased Peprotech 100-17A
Outline: as §1

Human neutrophils [2] = assay: Inhibition of ROS production in human neutrophils (isoluminol chemiluminescence); conditions: Homo sapiens, Neutrophil, fMLP+TNF-α stimulated PMN
Outline: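 Extracellular ROS measured as isoluminol-amplified chemiluminescence following 1 μM fMLP activation on fibrinogen-coated plates, readings every 25 sec over 250 sec minus HBSS/isoluminol background. Beforehand, cells were treated with compounds at 0.1, 0.3, 1, 3 or 10 μM (30 min, 37° C) and TNF-α (20 ng/ml, 10 min); duplicate or triplicate.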

T2 sequence (P09038 134-288): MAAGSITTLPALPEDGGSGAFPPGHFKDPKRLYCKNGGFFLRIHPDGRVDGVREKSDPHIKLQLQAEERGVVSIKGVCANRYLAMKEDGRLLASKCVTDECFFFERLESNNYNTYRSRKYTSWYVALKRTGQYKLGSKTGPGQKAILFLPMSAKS
T3 sequence (P35968 20-1356): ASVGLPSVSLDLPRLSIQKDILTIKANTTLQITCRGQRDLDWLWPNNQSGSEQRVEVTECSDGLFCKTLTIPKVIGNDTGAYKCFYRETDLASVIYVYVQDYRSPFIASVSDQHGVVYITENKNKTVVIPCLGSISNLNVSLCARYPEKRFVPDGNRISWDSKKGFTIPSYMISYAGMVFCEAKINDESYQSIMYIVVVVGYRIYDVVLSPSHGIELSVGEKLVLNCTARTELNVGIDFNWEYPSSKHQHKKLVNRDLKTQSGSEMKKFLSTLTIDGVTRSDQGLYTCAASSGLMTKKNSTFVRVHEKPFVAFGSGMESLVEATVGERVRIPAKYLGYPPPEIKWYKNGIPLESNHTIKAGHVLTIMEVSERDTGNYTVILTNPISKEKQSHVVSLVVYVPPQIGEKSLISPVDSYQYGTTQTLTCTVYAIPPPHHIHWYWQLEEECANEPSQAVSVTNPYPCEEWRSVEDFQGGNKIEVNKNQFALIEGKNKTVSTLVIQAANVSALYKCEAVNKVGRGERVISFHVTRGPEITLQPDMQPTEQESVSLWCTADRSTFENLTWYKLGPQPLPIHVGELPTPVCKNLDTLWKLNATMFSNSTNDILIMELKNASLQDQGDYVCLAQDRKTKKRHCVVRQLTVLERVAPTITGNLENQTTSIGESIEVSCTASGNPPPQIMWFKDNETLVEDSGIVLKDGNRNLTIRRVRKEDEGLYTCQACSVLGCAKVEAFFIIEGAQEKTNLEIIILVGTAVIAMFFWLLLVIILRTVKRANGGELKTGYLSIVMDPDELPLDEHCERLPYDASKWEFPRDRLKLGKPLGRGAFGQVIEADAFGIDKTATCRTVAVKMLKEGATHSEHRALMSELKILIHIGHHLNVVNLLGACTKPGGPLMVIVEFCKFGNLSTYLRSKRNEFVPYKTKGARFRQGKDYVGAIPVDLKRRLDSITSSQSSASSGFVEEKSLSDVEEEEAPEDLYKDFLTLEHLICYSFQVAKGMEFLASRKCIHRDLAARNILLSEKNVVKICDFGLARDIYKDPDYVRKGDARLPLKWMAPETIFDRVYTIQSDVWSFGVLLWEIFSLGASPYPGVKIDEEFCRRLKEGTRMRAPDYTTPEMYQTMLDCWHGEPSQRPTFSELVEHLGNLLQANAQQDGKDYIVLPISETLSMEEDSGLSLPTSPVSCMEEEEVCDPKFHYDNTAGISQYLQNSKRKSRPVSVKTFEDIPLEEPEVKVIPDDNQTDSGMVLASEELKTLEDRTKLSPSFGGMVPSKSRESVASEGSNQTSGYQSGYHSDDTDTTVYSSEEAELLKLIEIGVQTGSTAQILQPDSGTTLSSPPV
T4 sequence (P05230 whole entry): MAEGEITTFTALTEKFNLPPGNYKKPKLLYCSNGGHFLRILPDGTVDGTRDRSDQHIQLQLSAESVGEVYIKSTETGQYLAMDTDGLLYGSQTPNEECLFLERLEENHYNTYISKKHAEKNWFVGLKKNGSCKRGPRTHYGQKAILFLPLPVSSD

Row | Compound | IC50 (VEGF-A) | Neutrophil adhesion inhibition (Human neutrophils [1]) | IC50 (FGF-2) | IC50 (VEGFR-2) | IC50 (FGF-1) | inhibition at 0.3 µM (Human neutrophils [2]) | IC50 (Human neutrophils [2])
1 | O=C(O)Cc1cc(O)c(C(=O)Nc2cc(C(=O)O)cc(C(=O)O)c2)cc1O [IIIa-015a, 5-(4-(carboxymethyl)-2,5-dihydroxybenzamido)isophthalic acid] | 202 µM | 12.13% | 114 µM | 0.89 µM | 16 µM | 78.8% | 
2 | O=C(O)c1cc(O)c(CSCc2cc(O)c(C(=O)O)cc2O)cc1O [IIIc-058a, 4-((2,5-Dihydroxy-4-carboxyphenyl)methylthiomethyl)-2,5-dihydroxybenzoic acid] | 124 µM | 23% | 12 µM | 0.29 µM | 12 µM | 61.2% | 1.17 µM
3 | O=C(O)c1cc(O)cc(C(=O)Nc2c(C(=O)O)cccc2C(=O)O)c1O [IIa-013a, 2-(3-carboxy-2,5-dihydroxybenzamido)isophthalic acid] | 34 µM | 15.75% | 12 µM | ≥ 100 µM | 137 µM | 57.7% | 2.54 µM
4 | O=C(O)c1ccc(NC(=O)c2cc(O)cc(C(=O)O)c2O)cc1C(=O)O [IIa-014a, 4-(3-carboxy-2,5-dihydroxybenzamido)phthalic acid] | 91 µM | 21.5% | 61 µM | 17.6 µM | 40 µM | 73.9% | 
5 | O=C(O)Cc1ccccc1NC(=O)c1cc(O)cc(C(=O)O)c1O [IIa-034a, 3-(2-(carboxymethyl)phenylaminocarbonyl)-2,5-dihydroxybenzoic acid] | 86 µM | 26.58% | 5.7 µM | ≥ 100 µM | 22 µM | 69.2% | 
6 | O=C(O)c1cc(O)cc(C(=O)NCc2ccc(O)c(O)c2)c1O [IIa-035a, 3-(3,4-Dihydroxyphenylmethylaminocarbonyl)-2,5-dihydroxybenzoic acid] | 45 µM | 36.67% | 61 µM | 0.52 µM | 16 µM | 77% | 1 µM
7 | COC(=O)c1cc(O)cc(CS(=O)(=O)Cc2cc(O)cc(C(=O)OC)c2O)c1O [IVc-059a-E2] | ≥ 200 µM | 50.5% | 94 µM | 2.7 µM | 78 µM | 45.7% | 2.64 µM
8 | CCOC(=O)c1cc(O)c(C(=O)Nc2ccccc2C(=O)OCC)cc1O [Ia-001a-E2, ethyl 4-(2-(ethoxycarbonyl)phenylaminocarbonyl)-2,5-dihydroxybenzoate] | 123 µM | 50.5% | ≥ 200 µM | 1.25 µM | 9.2 µM | 51.5% | 2.58 µM
9 | CCOC(=O)c1cc(O)c(C(=O)Nc2ccccc2-c2nnn[nH]2)cc1O [Ia-001a-Tz-E1, ethyl 4-(2-(1H-tetrazol-5-yl)phenylaminocarbonyl)-2,5-dihydroxybenzoate] | ≥ 200 µM | 98.88% | ≥ 200 µM | 3.8 µM | ≥ 200 µM | 76% | 
10 | O=C(O)c1cccc(NC(=O)c2cc(O)c(C(=O)O)cc2O)c1 [Ia-002a, 4-(3-carboxyphenylaminocarbonyl)-2,5-dihydroxybenzoic acid] | 71 µM | 27.92% | 59 µM | 5.7 µM | 20 µM | 42.1% | 0.312 µM
11 | O=C(O)c1cc(O)c(C(=O)Nc2cccc(-c3nnn[nH]3)c2)cc1O [Ia-002a-Tz, 4-(3-(1H-tetrazol-5-yl)phenyl-aminocarbonyl)-2,5-dihydroxybenzoic acid] | 57 µM | 38.5% | 53 µM | ≥ 100 µM | 10 µM | 66.6% | 1.86 µM
12 | O=C(O)c1cc(NC(=O)c2cc(O)c(C(=O)O)cc2O)ccc1O [Ia-004a, 4-(3-carboxy-4-hydroxyphenylaminocarbonyl)-2,5-dihydroxybenzoic acid] | 28 µM | 28.38% | 15 µM | 7.7 µM | 32 µM | 64.6% | 
13 | O=C(O)c1cc(O)c(C(=O)Nc2ccc(O)cc2C(=O)O)cc1O [Ia-006a, 4-(2-carboxy-4-hydroxyphenylaminocarbonyl)-2,5-dihydroxybenzoic acid] | ≥ 100 µM | 25.33% |  | 11.8 µM | 89 µM | 60.6% | 1.2 µM
14 | O=C(O)c1cc(O)c(C(=O)Nc2cccc(C(=O)O)c2C(=O)O)cc1O [Ia-011a, 3-(4-carboxy-2,5-dihydroxybenzamido)phthalic acid] | ≥ 200 µM | 42.32% | 110 µM | ≥ 100 µM | 35 µM | 57.7% | 
15 | O=C(O)c1ccc(C(=O)O)c(NC(=O)c2cc(O)c(C(=O)O)cc2O)c1 [Ia-012a, 2-(4-carboxy-2,5-dihydroxybenzamido)terephthalic acid] | 30 µM | 28.5% | 36 µM | ≥ 100 µM | 38 µM | 59.5% | 1.85 µM
16 | COC(=O)c1cc(NC(=O)c2cc(O)c(C(=O)Nc3ccccc3-c3nnn[nH]3)cc2O)ccc1O [Ic-001a-Tz/004a-E1, methyl 5-(4-(2-(1H-tetrazol-5-yl)phenylaminocarbonyl)-2,5-dihydroxybenzamido)-2-hydroxybenzoate] | 35 µM | 97.56% |  | 0.1 µM | 104 µM | 74% | 
